Structures can show the parent of a compound that is named as a salt.
| melting point [°C] | SMILES |
| --- | --- |
| 120 to 122 | N#C[C@@H]1CCCN1C(=O)CNC1CCC(NS(=O)(=O)c2ccccc2)CC1 (stereo partly drawn) (as salt: hydrochloride) [Ex. 2M, 1-[[[4-[(phenylsulfonyl)amino]cyclohexyl]amino]acetyl]-2-cyano-(S)-pyrrolidine] |
| 289 to 292 | N#C[C@@H]1CCCN1C(=O)CN[C@H]1CC[C@H](Nc2ncccc2C(F)(F)F)CC1 (as salt: hydrochloride) [Ex. 2P, 1-[[4-[[(3-trifluoromethyl-2-pyridinyl)amino]cyclohexyl]amino]acetyl]-2-cyano-(S)-pyrrolidine] |
| 260 to 263 | N#C[C@@H]1CCCN1C(=O)CN[C@H]1CC[C@H](NC(=O)c2ccc(Cl)cc2)CC1 (as salt: hydrochloride) [Ex. 2T, 1-[[[4-[(4-chlorobenzoyl)amino]cyclohexyl]amino]acetyl]-2-cyano-, (S)-pyrrolidine] |
| > 300 | N#C[C@@H]1CCCN1C(=O)CNC1CCN(S(=O)(=O)c2ccc(C(F)(F)F)cc2)CC1 (as salt: hydrochloride) [Ex. 4C] |
| 160 to 162 | N#C[C@@H]1CCCN1C(=O)CNC1CCN(c2nc(-c3ccc(Cl)cc3)cs2)CC1 (as salt: hydrochloride) [Ex. 2LL] |
| 135 to 137 | N#C[C@@H]1CCCN1C(=O)CN[C@H]1CC[C@H](NS(=O)(=O)c2ccc(C(F)(F)F)cc2)CC1 (as salt: hydrochloride) [Ex. 2Z, 1-[[[4-[[[(4-trifluoromethyl)phenyl]sulfonyl]amino]cyclohexyl]amino]acetyl]-2-cyano-(S)-pyrrolidine] |
| 154 to 156 | COc1ccc(-c2csc(N3CCC(NCC(=O)N4CCC[C@H]4C#N)CC3)n2)cc1 (as salt: hydrochloride) [Ex. 2MM] |
| 189 to 190 | N#C[C@@H]1CCCN1C(=O)CNC1CCC(NC(=O)C2CCCCC2)CC1 (stereo partly drawn) (as salt: hydrochloride) [Ex. 2X, 1-[[[4-[(cyclohexylcarbonyl)amino]cyclohexyl]amino]acetyl]-2-cyano-(S)-pyrrolidine] |
| 290 to 294 | N#C[C@@H]1CCCN1C(=O)CNC1CCC(Nc2nc3cc(Cl)ccc3s2)CC1 (stereo partly drawn) (as salt: hydrochloride) [Ex. 2Y, 1-[[[4-[(5-chloro-2-benzothiazolyl)amino]cyclohexyl]amino]acetyl]-2-cyano-(S)-pyrrolidine] |
| 246 to 248 | N#C[C@@H]1CCCN1C(=O)CNC1CCC(Nc2nc3ccccc3s2)CC1 (stereo partly drawn) (as salt: hydrochloride) [Ex. 2V, 1-[[[4-[(2-benzothiazolyl)amino]cyclohexyl]amino]acetyl]-2-cyano-(S)-pyrrolidine] |
| > 300 | N#C[C@@H]1CCCN1C(=O)CNC1CCN(S(=O)(=O)c2ccccc2)CC1 (as salt: hydrochloride) [Ex. 4D, 1-[[(1-phenylsulfonyl-4-piperidinyl)amino]acetyl]-2-cyano-(S)-pyrrolidine] |
| 290 to 293 | N#C[C@@H]1CCCN1C(=O)CNC1CCC(Nc2ccnc(Cl)n2)CC1 (stereo partly drawn) (as salt: hydrochloride) [Ex. 2S, 1-[[[4-[(2-chloro-4-pyrimidinyl)amino]cyclohexyl]amino]acetyl]-2-cyano-(S)-pyrrolidine] |
| 152 to 155 | N#C[C@@H]1CCCN1C(=O)CNC1CCN(C(=O)c2ccc(Cl)cc2)CC1 (as salt: hydrochloride) [Ex. 4B] |
| 290 to 294 | CC(C)(C)C(=O)NC1CCC(NCC(=O)N2CCC[C@H]2C#N)CC1 (stereo partly drawn) (as salt: hydrochloride) [Ex. 2U, 1-[[[4-[(2,2-dimethyl-1-oxopropyl)amino]cyclohexyl]amino]acetyl]-2-cyano-(S)-pyrrolidine] |
| 112 to 114 | CC(C)(CNC(=O)Nc1ccc(Cl)cc1)NCC(=O)N1CCC[C@H]1C#N (as salt: hydrochloride) [Ex. 2K, 1-[[[2-[[[(4-chlorophenyl)amino]carbonyl]amino]-1,1-dimethylethyl]amino]acetyl]-2-cyano-(S)-pyrrolidine] |
| 165 to 167 | N#Cc1ccc(NC2CCC(NCC(=O)N3CCC[C@H]3C#N)CC2)cc1 (stereo partly drawn) (as salt: hydrochloride) [Ex. 2W, 1-[[[4-[(4-cyanophenyl)amino]cyclohexyl]amino]acetyl]-2-cyano-(S)-pyrrolidine] |
| > 300 | N#C[C@@H]1CCCN1C(=O)CNC1CCN(C(=O)C2CCCCC2)CC1 (as salt: hydrochloride) [Ex. 4A, 1-[[[1-(cyclohexylcarbonyl)-4-piperidinyl]amino]acetyl]-2-cyano-(S)-pyrrolidine] |
| 160 to 162 | N#C[C@@H]1CCCN1C(=O)CN[C@H]1CC[C@H](NS(=O)(=O)c2ccc(Cl)cc2)CC1 (as salt: hydrochloride) [Ex. 2Q, 1-[[[[4-[(4-chlorophenyl)sulfonyl]amino]cyclohexyl]amino]acetyl]-2-cyano-(S)-pyrrolidine] |
| 78 to 80 | N#C[C@@H]1CCCN1C(=O)CNC1CCC(NC(=O)c2ccccc2)CC1 (stereo partly drawn) [Ex. 2N, 1-[[[4-(benzoylamino)cyclohexyl]amino]acetyl]-2-cyano-(S)-pyrrolidine] |
| 242 to 244 | N#Cc1ccc(NC2CCC(NCC(=O)N3CCC[C@H]3C#N)CC2)nc1 (stereo partly drawn) (as salt: hydrochloride) [Ex. 2L, 1-[[[4-[(5-cyano-2-pyridinyl)amino]cyclohexyl]amino]acetyl]-2-cyano-(S)-pyrrolidine] |

Further lines, the compound ahead of its results:

| SMILES | melting point [°C] |
| --- | --- |
| N#C[C@@H]1CCCN1C(=O)CN[C@H]1CC[C@H](Oc2cccc(Cl)c2)CC1 (as salt: hydrochloride) [Ex. 2HH] | 72 to 74 |
| CC(C)(CNc1ncccc1C(F)(F)F)NCC(=O)N1CCC[C@H]1C#N (as salt: hydrochloride) [Ex. 2G, 1-[[[2-[(3-trifluoromethyl-2-pyridinyl)amino]-1,1-dimethylethyl]amino]acetyl]-2-cyano-(S)-pyrrolidine] | 112 to 114 |
| N#C[C@@H]1CCCN1C(=O)CNC1CCC(Nc2ccc(C(F)(F)F)cn2)CC1 (some centres unmarked) (as salt: hydrochloride) | 270 to 273 |
| CC(C)(CNc1ncc(Cl)cc1Cl)NCC(=O)N1CCC[C@H]1C#N (as salt: hydrochloride) [Ex. 2F, 1-[[[2-[(3,5-dichloro-2-pyridinyl)amino]-1,1-dimethylethyl]amino]acetyl]-2-cyano-(S)-pyrrolidine] | 108 to 110 |
| CC(C)N(C(=O)N1CCC(NCC(=O)N2CCC[C@H]2C#N)CC1)C(C)C (as salt: hydrochloride) [Ex. 2JJ, 1-[[[1-[(diisopropylamino)carbonyl]-4-piperidinyl]amino]acetyl]-2-cyano-(S)-pyrrolidine] | 82 to 84 |
| CC(C)(Cc1ccccc1)NCC(=O)N1CCC[C@H]1C#N (as salt: hydrochloride) [Ex. 2CC, 1-[[(1,1-dimethyl-2-phenylethyl)amino]acetyl]-2-cyano-(S)-pyrrolidine] | 212 to 214 |
| N#C[C@@H]1CCCN1C(=O)CNC1CCN(C(=O)Nc2ccc(Cl)cc2)CC1 (as salt: hydrochloride) [Ex. 2II, 1-[[[1-[[(4-chlorophenyl)amino]carbonyl]-4-piperidinyl]amino]acetyl]-2-cyano-(S)-pyrrolidine] | 172 to 174 |
| CC(C)(CNC(=O)c1ccc(Cl)cc1)NCC(=O)N1CCC[C@H]1C#N (as salt: hydrochloride) [Ex. 2I, 1-[[[2-[(4-chlorobenzoyl)amino]-1,1-dimethylethyl]amino]acetyl]-2-cyano-(S)-pyrrolidine] | 121 to 123 |
| N#C[C@@H]1CCCN1C(=O)CN[C@H]1CC[C@H](Oc2cccc(C(F)(F)F)c2)CC1 (as salt: hydrochloride) [Ex. 2GG, 1-[[[4-[(3-trifluoromethyl)phenoxy]cyclohexyl]amino]acetyl]-2-cyano-(S)-pyrrolidine] | 120 to 122 |
| CC(C)(CNc1ncccc1Cl)NCC(=O)N1CCC[C@H]1C#N (as salt: hydrochloride) [Ex. 2D, 1-[[[2-[(3-chloro-2-pyridinyl)amino]-1,1-dimethylethyl]amino]acetyl]-2-cyano-(S)-pyrrolidine] | 144 to 146 |
| CC(C)(CNc1ccc(C(F)(F)F)cn1)NCC(=O)N1CCC[C@H]1C#N (as salt: hydrochloride) [Ex. 2B, 1-[[[2-[(5-trifluoromethyl-2-pyridinyl)amino]-1,1-dimethylethyl]amino]acetyl]-2-cyano-(S)-pyrrolidine] | 170 to 172 |
| CCCCCC12CCC(NCC(=O)N3CCC[C@H]3C#N)(CC1)CC2 (as salt: hydrochloride) [Ex. 2DD, 1-[[(4-pentylbicyclo[2.2.2]oct-1-yl)amino]acetyl]-2-cyano-(S)-pyrrolidine] | 99 to 102 |
| N#C[C@@H]1CCCN1C(=O)CN[C@H]1CC[C@H](NS(=O)(=O)c2cccs2)CC1 (as salt: hydrochloride) [Ex. 2AA] | 75 to 77 |
| CC(C)(CNc1ccc(C#N)cn1)NCC(=O)N1CCC[C@H]1C#N [Ex. 2A, 1-[[[2-[(5-cyano-2-pyridinyl)amino]-1,1-dimethylethyl]amino]acetyl]-2-cyano-(S)-pyrrolidine] | 47 to 49 |
| CC(C)N(C(=O)NCC(C)(C)NCC(=O)N1CCC[C@H]1C#N)C(C)C (as salt: hydrochloride) [Ex. 2J, 1-[[[2-[[(diisopropylamino)carbonyl]amino]-1,1-dimethylethyl]amino]acetyl]-2-cyano-(S)-pyrrolidine] | 128 to 130 |
| CC(C)(CNC(=O)C(C)(C)C)NCC(=O)N1CCC[C@H]1C#N (as salt: hydrochloride) [Ex. 2H, 1-[[[2-[(2,2-dimethyl-1-oxopropyl)amino]-1,1-dimethylethyl]amino]acetyl]-2-cyano-(S)-pyrrolidine] | 225 to 227 |
| N#CC1CCCN1C(=O)CNC1CCC(Oc2ccc(Cl)cc2)CC1 (as salt: hydrochloride) [Ex. 2FF, 1-[[4-[4-chlorophenoxy)cyclohexyl]amino]acetyl]-2-cyano-(S)-pyrrolidine] | 232 to 235 |
| CC(C)(Cc1ccc(F)cc1)NCC(=O)N1CCC[C@H]1C#N (as salt: hydrochloride) [Ex. 2BB] | 198 to 200 |
